Data as given in patent US11173124B2, “Oral delivery of GLP-1 peptide analogs” (MEDIMMUNE LIMITED, priority 2017, dated 2021).
Starred links: 1 amine or outer side, 2 acyl side, 3 side chain; linkers in the order of their positions; H or OH if unused. Non-standard residues stand in square brackets, D forms with d. Residues, ends and D or L forms follow the SMILES beside them. Groups on a side chain read outwards from the residue. ξ: configuration not given here. *: point of attachment. γGlu = O=C(O)[C@H](CCC(=O)[*:2])N[*:1]; Palmitoyl = CCCCCCCCCCCCCCCC(=O)*; ξαMeF = CC(N)(Cc1ccccc1)C(=O)O; Lauroyl = CCCCCCCCCCCC(=O)*; ξαMeK = CC(N)(CCCCN)C(=O)O; ξαMeS = CC(N)(CO)C(=O)O; AEEA = NCCOCCOCC(=O)O; Aib = CC(C)(N)C(=O)O

Tests used:
[1] = test system: Gastrointestinal (GI) tract tissues; assay: Microscopic evaluation of gastrointestinal tract tissues after intraduodenal dosing (Example 4); type: in vivo; conditions: rat, following administration of 50 mg/kg sodium caprate
[2] = in vivo; conditions: dog, po
From the text: The following materials and methods were used for quantitative measurements of GLP-1 peptide analogs in plasma (e.g., rat or dog plasma) in the Examples below. These methods used a SCIEX 6600 TripleTOF mass spectrometer coupled with a Shimadzu ultra-high performance liquid chromatography (UHPLC). The specificity of the method was ensured by the retention time, the selected mass for Single-Reaction-Monitoring (SRM) mode, and the selected fragment mass in MS/MS (MS^2) mode. […] The analytes of interest were analyzed from plasma, a complex biological matrix. Although protein precipitation using organic solvent can reduce matrix interference, significant background still persists. The high mass accuracy offered by the TripleTOF mass spectrometers further eliminated background noise, thus enhancing signal: noise (S/N) and allowing improved quantification.
The plasma extraction procedure used the following steps: • Samples, standards, and quality controls were incubated until they reached room temperature. They were then incubated at 60° C. for 2 minutes and cooled down to room temperature, vortexed, and spun down. • 70 μL of samples, standards, or quality controls were transferred into a 1 mL 96-well plate. • In each well, 420 uL of Precipitation Solution was added. The plate was sealed and shook for 10 minutes on a plate shaker at 600 rpm. • The plate was centrifuged at 18G, 2500 RFC, 20° C. for 10 minutes. • The plate was carefully removed, and the upper clear supernatant was extracted with a 200 uL multichannel pipette into a new 96-well protein lobind plate. The supernatant was extracted twice for each well, and the supernatants were combined. • The Plate was placed in TurboVap and the extracted supernatant was dried completely with heated (65° C.) Nitrogen gas at 60 Fahrenheit (Fh). • After the plate was completely dry, the plates were covered and incubated at room temperature for at least 30 minutes until the plate returned back to ambient temperature. • 150 μL of Reconstitution solution was added to each well. The plate was covered with a pierceable place seal and shaken at 600 rpm for 10 minutes. • The samples were submitted to the LC-MS/MS on the same day of Preparation
Quantification of the data obtained using the high resolution SCIEX 6600 instrument was then performed as follows: • For the quantification, extracted ion chromatograms (XIC) using 0.2 Da m/z extraction window centered on the accurate mass of each fragment ion were generated. Accurate mass was calculated from the structure of the compound. […] Concentrations of the target analyte in unknown samples were obtained by regression analysis using linear fits of peak areas vs. analyte concentration, weighted 1/(concentration). • The quality of the assay was controlled by the quality control samples. • Either Experiment 1 or Experiment 2 could be used for the quantification of the GLP-1 peptide analogs in high resolution mode.
MEDI7219 (SEQ ID NO:2) formulations were studied in the following canine study, which was designed to compare different tablet delivery systems and peptides in enterically coated tablet formulation compositions delivered orally. […]
The efficacy of sodium caprate as a permeation enhancer was also evaluated.

[3] = test system: Caco-2 cells; assay: Caco-2 study, Permeability (%) of lipidated peptides (Example 3); type: in vitro ADME, human; conditions: 0.1 mg/mL peptide
From the text: The Caco-2 cell line is a continuous cell line of heterogeneous human epithelial colorectal adenocarcinoma cells, which when cultured under specific conditions, become differentiated and polarized such that their phenotype, morphologically and functionally, resembles the enterocytes lining the small intestine. Caco-2 cells express tight junctions, microvilli, and a number of enzymes and transporters that are characteristic of such enterocytes. Caco-2 cells are most commonly used as a tight junction monolayer that provides a physical and biochemical barrier to the passage of drugs and thus serves as an in vitro model of the human small intestinal mucosa to predict the absorption of orally administered drugs. Caco-2 permeability assays were performed by Cyprotex US, LLC (MA, USA) to assess the efficacy of different permeation enhancers. Caco-2 cells were grown on Transwell filters until a transepithelial electric resistance of ˜1000 ohms/cm^2 was achieved. The cells were incubated for three hours with media containing test samples on the apical (top) side of the cell layer, and with blank media on the basolateral (lower) side of the cell layer. Media from the apical and basolateral sides was collected separately after three hours and evaluated for the amount of peptide present on each side. Table 2 gives the permeability coefficient (Papp) of the various test samples, which include the SEQ ID NO:3 GLP-1 peptide in the presence of different excipients.
A following Caco-2 study was performed to evaluate the permeability of different peptides in the presence of various permeation enhancers. Permeability (%) was calculated by dividing the cumulative amount of molecules transported with the original loading amount. Concentrations of peptides in starting sample and apical and basal solutions after incubation for pre-determined periods were analyzed by HPLC. Sodium chenodeoxycholate at 25 mg/mL effected the highest permeability of each tested peptide (Table 4).

[4] = Third rat ID infusion study, stabilized peptides vs semaglutide (Example 6); conditions: in vivo
Method: The third rat ID infusion study was performed to compare bioavailability of stabilized peptides MEDI7219 (SEQ ID NO:2) and SEQ ID NO:6 with that of semaglutide, H-His-Aib-[…]AEEAc-AEEAc-γ-Glu-17-carboxyheptadecanoyl)-[…]OH (SEQ ID NO:11), (Novo Nordisk), an un-stabilized GLP-1 peptide analog, that only has Aib in its sequence for protection from circulating DPP-IV peptidases, (Table 7 and FIG. 2B).

[5] = Canine tablet site of absorption study, SEQ ID NO:6 tablets in acid-resistant capsules or IntelliCap (Example 12); type: in vivo; conditions: dog; for Tmax / half-life / AUC(0-t) / Cmax: in vivo; for bioavailability: plasma
Method: A third site of absorption study was performed to evaluate the absorption sites and tablet formulations in acid-resistant capsules in canines. The tablet manufacturing process was as follows: All ingredients were passed through a US sieve #35 (0.5 mm opening), and the resultant powder was compacted using a pellet press. Compacted material was again passed through a US sieve #35 (0.5 mm opening) to form granules. […] Tablets in this study were either placed in acid-resistant capsules (Table 18, Groups 1 and 2) or in IntelliCap® (Table 18, Groups 3 and 4).

[6] = canine, Intravenous, 0.031 mg/kg, 0.031 mg/mL peptide in Tris Mannitol, pH 8.0
[7] = canine, Oral IntelliCap released in proximal colon, 0.96 mg/kg, 10 mg peptide, 100 mg Na CDC, 50 mg PG tablet
[8] = canine, Oral, 0.54 mg/kg, 5 mg peptide, 100 mg Na CDC, 50 mg PG tablet in Acid-resistant capsule
[9] = canine, Oral, 1.08 mg/kg, 10 mg peptide, 100 mg Na CDC, 50 mg PG tablet in Acid-resistant capsule

CCCCCCCCCC(=O)[O-].[Na+] [sodium caprate]
Gastrointestinal (GI) tract tissues upon microscopic evaluation [1]: looked normal

CCCCCCCCCCCCCCCC(=O)N[C@@H](CCC(=O)NCCOCCOCC(=O)NCCOCCOCC(=O)NCCCC[C@H](NC(=O)[C@H](C)NC(=O)[C@@H](NC(=O)C(C)(Cc1ccccc1)NC(=O)[C@H](CCC(=O)O)NC(=O)C(C)(CCCCN)NC(=O)[C@H](C)NC(=O)[C@H](C)NC(=O)[C@H](CCC(=O)O)NC(=O)CNC(=O)[C@H](CCC(=O)O)NC(=O)[C@H](CC(C)C)NC(=O)[C@H](CCCCNC(=O)COCCOCCNC(=O)COCCOCCNC(=O)CC[C@H](NC(=O)CCCCCCCCCCCCCCC)C(=O)O)NC(=O)[C@H](CO)NC(=O)C(C)(CO)NC(=O)[C@@H](NC(=O)[C@H](CC(=O)O)NC(=O)[C@H](CO)NC(=O)[C@@H](NC(=O)C(C)(Cc1ccccc1)NC(=O)[C@H](CO)NC(=O)CNC(=O)[C@H](CCC(=O)O)NC(=O)C(C)(C)NC(=O)[C@@H](N)Cc1c[nH]cn1)[C@@H](C)O)C(C)C)[C@@H](C)CC)C(=O)N[C@H](C(=O)N[C@H](C(=O)N[C@@H](CCC(=O)O)C(=O)NCC(=O)NCC(N)=O)C(C)C)C(C)C)C(=O)O (some centres unmarked) [SEQ ID NO: 10, Free-H-[AIB]-EGS-[αMePhe]-TSDV-[αMeSer]-SK[(PEG2)2-γE-Palmitoyl]-LEGEAA-[αMeLys]-E-[αMePhe]-IAK[(PEG2)2-γE-Palmitoyl]-VVEGG-amide] (H-H[Aib]EGS[ξαMeF]TSDV[ξαMeS]SK([AEEA-AEEA-γGlu-Palmitoyl])LEGEAA[ξαMeK]E[ξαMeF]IAK([AEEA-AEEA-γGlu-Palmitoyl])VVEGG-NH2)
AUC [2]: 23700 ng·h/mL
PK variability [2]: 52.3%
half-life [2]: 33 h

CCCCCCCCCCCC(=O)N[C@@H](CCC(=O)NCCOCCOCC(=O)NCCOCCOCC(=O)NCCCC[C@H](NC(=O)[C@H](C)NC(=O)[C@@H](NC(=O)[C@H](Cc1ccccc1)NC(=O)[C@H](CCC(=O)O)NC(=O)C(C)(CCCCN)NC(=O)[C@H](C)NC(=O)[C@H](C)NC(=O)[C@H](CCC(=O)O)NC(=O)CNC(=O)[C@H](CCC(=O)O)NC(=O)[C@H](CC(C)C)NC(=O)[C@H](CCCCNC(=O)COCCOCCNC(=O)COCCOCCNC(=O)CC[C@H](NC(=O)CCCCCCCCCCC)C(=O)O)NC(=O)[C@H](CO)NC(=O)C(C)(CO)NC(=O)[C@@H](NC(=O)[C@H](CC(=O)O)NC(=O)[C@H](CO)NC(=O)[C@@H](NC(=O)C(C)(Cc1ccccc1)NC(=O)[C@H](CO)NC(=O)CNC(=O)[C@H](CCC(=O)O)NC(=O)C(C)(C)NC(=O)[C@@H](N)Cc1c[nH]cn1)[C@@H](C)O)C(C)C)[C@@H](C)CC)C(=O)N[C@H](C(=O)N[C@H](C(=O)N[C@@H](CCC(=O)O)C(=O)NCC(=O)NCC(N)=O)C(C)C)C(C)C)C(=O)O (some centres unmarked) [SEQ ID NO: 6, Free-H-[AIB]-EGS-[αMePhe]-TSDV-[αMeSer]-SK[(PEG2)2-γE-Lauroyl]-LEGEAA-[αMeLys]-EFIAK[(PEG2)2-γE-Lauroyl]-VVEGG-amide] (H-H[Aib]EGS[ξαMeF]TSDV[ξαMeS]SK([AEEA-AEEA-γGlu-Lauroyl])LEGEAA[ξαMeK]EFIAK([AEEA-AEEA-γGlu-Lauroyl])VVEGG-NH2)
Permeability (%) ([3]; 5.0 mg/mL Sodium Chenodeoxycholate): 1.21%
Permeability (%) ([3]; 25 mg/mL Sodium Chenodeoxycholate): 13.3%
F [4]: significantly higher absolute bioavailability via ID route than semaglutide
half-life [4]: 9 h
bioavailability ([4]; 1 mg/kg): 1.2%
AUC ([4]; iv, 0.01 mg/kg): 1080 ng·h/mL
Cmax ([4]; iv, 0.01 mg/kg): 211 ng/mL
F ([4]; iv, 0.01 mg/kg): 100%
half-life ([4]; iv, 0.01 mg/kg): 9.2 h
Tmax ([5]; po, […]): 0.857 h
half-life ([5]; po, […]): 6.76 h
AUC(0-t) [5, 6]: 147 ± 19.9 ng·h/mL
Cmax [5, 6]: 27.3 ng/mL
Tmax [5, 6]: 0.444 h
half-life [5, 6]: 7.21 h
AUC(0-t) [5, 7]: 1490 ng·h/mL
Cmax [5, 7]: 210 ng/mL
Tmax [5, 7]: 2.14 h
half-life [5, 7]: 5.37 h
AUC(0-t) [5, 8]: 325 ± 467 ng·h/mL
Cmax [5, 8]: 47.3 ng/mL
Tmax [5, 8]: 1.64 h
half-life [5, 8]: 6.99 h
AUC(0-t) [5, 9]: 1970 ng·h/mL
Cmax [5, 9]: 279 ng/mL
Tmax [5, 9]: 1.79 h
half-life [5, 9]: 6.31 h
bioavailability ([5]; po, […]): 2.46%
bioavailability [5, 7]: 2.79%
bioavailability [5, 8]: 1.3%
bioavailability [5, 9]: 3.63%
